Test results: US20230116703A1, “NOVEL ERGOLINES AND METHODS OF TREATING MOOD DISORDERS” (priority 2021, published 2023)
Where two headings read alike, the source gives them in different places.

Columns and labels:
[1] = Metabolic stability in rat liver microsomes (RLM); settings: for t1/2: RLM, 0.50 mg protein per mL; for microsomal CLint at 1 μM: both, rat, pooled rat liver microsomes, pH 7.4
[2] = Metabolic stability in mouse liver microsomes (MLM); format: in vitro ADME; settings: 0.50 mg protein per mL; for t1/2: MLM (CD-1), 1 μM; for microsomal CLint at 1 μM: mouse, pooled mouse liver microsomes, pH 7.4, MLM (CD-1)
From the text: MLM Stability Pooled MLM from CD-1 mice (BIOIVT M00501) were used.

5-HT2B receptor = biological target: T1, 5-HT2B receptor (Homo sapiens, UniProt P41595); experiment: cell-based; settings: Ca^2+ flux, agonist; for EC50: read-out: 5-HT2B EC50
T1 construct: host or cells: HEK293
T1 sequence (P41595 whole entry): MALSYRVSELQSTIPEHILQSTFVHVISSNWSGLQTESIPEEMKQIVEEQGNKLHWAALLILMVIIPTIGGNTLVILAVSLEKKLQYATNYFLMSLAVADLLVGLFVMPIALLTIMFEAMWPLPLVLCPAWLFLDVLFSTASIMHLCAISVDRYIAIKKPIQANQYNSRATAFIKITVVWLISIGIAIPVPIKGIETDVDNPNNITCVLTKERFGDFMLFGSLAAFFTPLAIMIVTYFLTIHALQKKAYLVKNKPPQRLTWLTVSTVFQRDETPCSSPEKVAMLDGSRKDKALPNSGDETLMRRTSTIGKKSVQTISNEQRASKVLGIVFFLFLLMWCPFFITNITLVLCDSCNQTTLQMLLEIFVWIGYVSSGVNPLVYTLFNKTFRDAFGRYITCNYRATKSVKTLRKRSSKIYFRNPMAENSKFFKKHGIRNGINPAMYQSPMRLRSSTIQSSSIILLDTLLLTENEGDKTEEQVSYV
Protocol: (§1) Functional Assays at 5-HT2A, 5-HT2B, and 5-HT1A. Agonist activity at 5-HT2A, 5-HT2B, and 5-HT1A receptors was determined using a FLIPR Ca^2+ flux assay at WuXi AppTec (Hong Kong) Limited according to their standard protocols. Briefly, stably transfected cells expressing the receptor of interest (HEK293 for 5-HT2A and 5-HT2B; CHO cells for 5-HT1A) were grown and plated in a 384 well plate and incubated at 37° C. and 5% CO2 overnight. A solution of 250 mM probenecid in 1 mL FLIPR assay buffer was prepared fresh. This was combined with a fluorescent dye (Fluo-4 Direct™) to make a final assay concentration of 2.5 mM. […] The fluorescent dye was then added to the assay plate along with assay buffer to a final volume of 40 μL. The cell plate was incubated for 50 min at 37° C. and 5% CO2 and placed into the FLIPR Tetra along with the compound plate. 10 μL of references and compounds were then transferred from the compound plate into the cell plate and the fluorescent signal was read.

5-HT1A receptor = biological target: T2, 5-HT1A receptor (Homo sapiens, UniProt P08908); experiment: cell-based
T2 construct: host or cells: CHO cells
T2 sequence (P08908 1-422): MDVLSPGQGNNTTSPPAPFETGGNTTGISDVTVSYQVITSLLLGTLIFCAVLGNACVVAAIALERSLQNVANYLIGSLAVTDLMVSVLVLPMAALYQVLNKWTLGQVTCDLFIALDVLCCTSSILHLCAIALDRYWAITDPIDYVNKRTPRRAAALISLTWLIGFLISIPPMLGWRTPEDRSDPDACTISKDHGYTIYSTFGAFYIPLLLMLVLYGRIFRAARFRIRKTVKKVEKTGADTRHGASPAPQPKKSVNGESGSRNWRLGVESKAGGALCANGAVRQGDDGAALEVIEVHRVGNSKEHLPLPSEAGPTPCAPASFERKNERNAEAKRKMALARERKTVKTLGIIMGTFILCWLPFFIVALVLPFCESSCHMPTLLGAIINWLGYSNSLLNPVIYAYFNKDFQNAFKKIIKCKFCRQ
Protocol: as §1

5-HT2A receptor [3] = biological target: T3, 5-HT2A receptor (Homo sapiens, UniProt P28223); experiment: biochemical; format: binding; settings: 1 nM [^3H]ketanserin, HEK293 stable cell line; read-out: 5-HT2A Receptor Ki (nM) ([^3H]ketanserin)
T3 construct: host or cells: HEK293
T3 sequence (P28223 whole entry): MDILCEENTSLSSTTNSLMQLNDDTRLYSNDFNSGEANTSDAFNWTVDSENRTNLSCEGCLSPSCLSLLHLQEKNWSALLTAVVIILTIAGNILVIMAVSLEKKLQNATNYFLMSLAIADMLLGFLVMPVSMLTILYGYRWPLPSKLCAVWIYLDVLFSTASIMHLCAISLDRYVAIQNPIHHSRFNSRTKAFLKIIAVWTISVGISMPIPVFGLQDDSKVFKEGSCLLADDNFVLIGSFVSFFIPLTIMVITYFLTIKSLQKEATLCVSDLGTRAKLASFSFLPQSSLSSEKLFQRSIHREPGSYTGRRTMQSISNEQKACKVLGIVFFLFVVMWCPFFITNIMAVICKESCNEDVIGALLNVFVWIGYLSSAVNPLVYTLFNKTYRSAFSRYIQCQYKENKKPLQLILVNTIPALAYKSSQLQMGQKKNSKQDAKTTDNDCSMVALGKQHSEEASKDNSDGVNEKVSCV
Protocol: Affinity of the test compounds for the 5-HT2A receptor was determined in radioligand binding experiments with [^3H]ketanserin by WuXi AppTec (Hong Kong) Limited, using methods adapted from the literature and under conditions described in Table 1.

5-HT1B receptor = 5-HT1B receptor (Homo sapiens, UniProt P28222); experiment: cAMP accumulation agonist assay at 5-HT1B; format: cell-based; settings: cAMP, agonist; read-out: 5-HT1B EC50
Sequence of 5-HT1B receptor (P28222 whole entry): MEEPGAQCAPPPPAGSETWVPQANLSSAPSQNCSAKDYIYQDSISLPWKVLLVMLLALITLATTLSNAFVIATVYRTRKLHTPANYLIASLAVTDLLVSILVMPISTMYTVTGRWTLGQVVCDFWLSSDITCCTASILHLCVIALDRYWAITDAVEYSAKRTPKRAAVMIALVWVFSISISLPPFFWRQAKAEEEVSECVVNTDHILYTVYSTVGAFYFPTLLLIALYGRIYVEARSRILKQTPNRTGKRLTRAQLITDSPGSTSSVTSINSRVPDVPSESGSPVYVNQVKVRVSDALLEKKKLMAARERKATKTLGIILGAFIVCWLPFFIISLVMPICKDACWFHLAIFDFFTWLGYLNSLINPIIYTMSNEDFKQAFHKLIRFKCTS
Protocol: Disclosed compounds were tested for agonist activity at several serotonin receptor subtypes (5-HT2A, […], 5-HT2C, and 5-HT1A) using Ca^2+ flux functional assays and the 5-HT1B receptor using a cAMP accumulation assay, with the results summarized in Table 4. […] Potent agonist activity was also observed at the other serotonin receptors tested, although the selectivity profile among the receptors varied across compounds. […]. However, at the same time, the N-propyl compounds were more efficacious agonists at 5-HT2B than the corresponding N-methyl compounds. The selectivity of disclosed compounds for 5-HT2A over 5-HT2C and 5-HT1A was less predictable and varied widely across compounds, ranging from ˜1:6 to ˜20:1 (2C/2A) in the case of 5-HT2C and from ˜1:4 to >100:1 (1A/2A) in the case of 5-HT1A. […] An azetidinyl amide substituent tended to increase potency at 5-HT1A relative to 5-HT2A.
Functional Assay at 5-HT1B. Agonist activity at 5-HT1B was determined using a cAMP accumulation protocol at WuXi AppTec (Hong Kong) Limited according to their standard protocols. Briefly, stably transfected cells were plated in an OptiPlate-384 well plate, incubated at RT for 60 mins, and cAMP standard solution (800 nM, 10 μL) was added to the blank well. Then, 10 μL detection reagent was added to each well, the plate incubated for 60 mins at RT, and the plate read using EnVision.

5-HT2A receptor [4] = biological target: T3, 5-HT2A receptor; experiment: cell-based; format: cell-based; settings: Ca^2+ flux, agonist; read-out: 5-HT2A EC50
Protocol: as §1

[5] = Metabolic stability in human liver microsomes (HLM); format: in vitro ADME; settings: for t1/2: 1 μM, 0.50 mg protein per mL; for microsomal CLint at 1 μM: both sexes, human, pooled human liver microsomes, pH 7.4, 0.50 mg protein per mL
From the text: HLM Stability. Pooled HLM from adult male and female donors (Corning 452117) were used.

C57BL/6 mice = experiment: Head twitch response (HTR) in mice; format: in vivo, mouse; settings: mouse HTR, SC
Protocol: Agonists of the 5-HT2A receptor are well known to induce this effect in rodents and the potency of this HTR is correlated with hallucinogenic potency in humans.
Animals. Adult male C57BL/6 mice, aged 6-8 weeks (body weight 20-25 g) were used in this experiment. Animals were housed under controlled temperatures and 12-hour light/dark cycles (lights on between 07:00-19:00 h), with ad libitum food and water. This study was carried out in strict accordance with the requirements of the Committee for the Purpose of Control and Supervision of Experiments on Animals (CPCSEA), India. All efforts were made to minimize suffering.
Drugs and Drug Administration. Compound 1 was synthesized as described above. It was administered subcutaneously (SC) dissolved in saline vehicle at a volume of 10 mL/kg. Five doses were tested, with n=6 animals/group. Doses were calculated on the basis of the freebase.
Procedure. Mice were administered one dose of the drug and immediately placed into a small open field for behavioral observation. Animals were observed continuously for 20 mins and the number of head twitches (HTs) were counted by an observer blind to the treatment condition.
Statistical Analysis. The data points shown are the mean±standard error of the mean (SEM). Analysis was performed using GraphPad Prism 6. Curves were fit using a non-linear gaussian distribution to calculate ED50 and Emax values.
Additional disclosed compounds were tested in the mouse head twitch response (HTR) assay according to the procedure described in Example 43. […] Lastly, compounds with much larger benzyl and phenethyl substituents on the amine nitrogen (e.g., 10 and 11) were low efficacy in this assay, consistent with their lower maximal efficacy in the arrestin functional assay (see Example 41).

5-HT2A receptor [6] = biological target: T3, 5-HT2A receptor; experiment: PathHunter beta-arrestin recruitment assay at 5-HT2A; format: cell-based
Protocol: The degree of arrestin bias varied substantially across the other compounds tested as well.
Arrestin Functional Assay at 5-HT2A. Recruitment of beta-arrestin was determined using a PathHunter assay at Eurofins DiscoverX (Fremont, Calif.) according to their standard protocols. PathHunter GPCR beta-arrestin assays take advantage of DiscoverX's proprietary Enzyme Fragment Complementation technology. The GPCR is fused in frame with a small enzyme donor fragment ProLink™ (PK) and co-expressed in cells stably expressing a fusion protein of beta-arrestin and the larger, N-terminal deletion mutant of beta-galactosidase. Activation of the GPCR (5-HT2A receptor in this case) stimulates binding of beta-arrestin to the PK-tagged GPCR and forces complementation of the two enzyme fragments, resulting in the formation of an active beta-galactosidase enzyme. This interaction leads to an increase in enzyme activity that can be measured using chemiluminescent PathHunter Detection Reagents. Briefly, PathHunter cells expressing 5-HT2A receptors were seeded in a volume of 20 μL into 384-well plates and incubated at 37° C. for the appropriate time prior to testing. […] Plates were then imaged on a microplate reader and the agonist activity was calculated using the following formula: % Activity=100%×(mean RLU of test sample−mean RLU of vehicle control)/(mean MAX control ligand−mean RLU of vehicle control), where RLU=relative light units.

[7] = Ca^2+ flux, agonist, read-out: 5-HT1A EC50

Row | Compound | t1/2 [1] | microsomal CLint at 1 μM [1] | t1/2 [2] | microsomal CLint at 1 μM [2] | 5-HT2B % Act @ Max Dose (5-HT2B receptor) | EC50 (5-HT2B receptor) | EC50 (5-HT1A receptor; [7]) | Ki (5-HT2A receptor [3]) | EC50 (5-HT1B receptor) | EC50 (5-HT2A receptor [4]) | t1/2 [5] | microsomal CLint at 1 μM [5] | 5-HT1A % Act @ Max Dose (5-HT1A receptor; Ca^2+ flux, agonist) | EC50 (5-HT1A receptor) | ED50 (C57BL/6 mice; 20 min, 20 min observation, curve fit, poor in some cases, read-out: ED50 (95% CI)) | Most Efficacious Dose (C57BL/6 mice) | Emax (95% CI) (C57BL/6 mice; 20 min observation, curve fit, poor in some cases) | EC50 (5-HT2A receptor [6]) | Emax (5-HT2A receptor [6]; 5-HT2A beta-arrestin) | agonist type in arrestin recruitment assay (in words) (5-HT2A receptor [6]; 5-HT2A beta-arrestin)
1 | CCN(CC)C(=O)[C@@H]1C=C2c3cccc4[nH]cc(c34)C[C@H]2N(CCc2cccc(OC)c2)C1 [Compound 20, (6aR,9R)—N,N-diethyl-7-(3-methoxyphenethyl)-4,6,6a,7,8,9-hexahydroindolo[4,3-fg]quinoline-9-carboxamide] | 1.2 min | 1150 µL/min/mg | 0.9 min | 1550 µL/min/mg | 3.60% | > 10000 nM | > 10000 nM | 1.03 nM | > 10000 nM | 265 nM | 2.1 min | 649 µL/min/mg |  |  |  |  |  |  |  | 
2 | CCN(CC)C(=O)[C@@H]1C=C2c3cccc4[nH]cc(c34)C[C@H]2N(CCc2ccc(OC)cc2)C1 [Compound 21, (6aR,9R)—N,N-diethyl-7-(4-methoxyphenethyl)-4,6,6a,7,8,9-hexahydroindolo[4,3-fg]quinoline-9-carboxamide] | 4.3 min | 323 µL/min/mg | 1.9 min | 717 µL/min/mg |  | > 10000 nM | > 10000 nM | 1.93 nM | 2750 nM | 619 nM | 3.8 min | 368 µL/min/mg | 8.2% |  |  |  |  |  |  | 
3 | CCN(CC)C(=O)[C@@H]1C=C2c3cccc4[nH]cc(c34)C[C@H]2N(Cc2ccccn2)C1 [Compound 22, (6aR,9R)—N,N-diethyl-7-(pyridin-2-ylmethyl)-4,6,6a,7,8,9-hexahydroindolo[4,3-fg]quinoline-9-carboxamide] | 13.2 min | 105 µL/min/mg | 9.2 min | 150 µL/min/mg |  | > 10000 nM | 7840 nM | 28.4 nM | 847 nM | 748 nM | 23.8 min | 58.2 µL/min/mg |  |  |  |  |  |  |  | 
4 | CCN(CC)C(=O)[C@@H]1C=C2c3cccc4[nH]cc(c34)C[C@H]2N(CCc2ccccn2)C1 [Compound 23, (6aR,9R)—N,N-diethyl-7-(2-(pyridin-2-yl)ethyl)-4,6,6a,7,8,9-hexahydroindolo[4,3-fg]quinoline-9-carboxamide] | 4.2 min | 332 µL/min/mg | 1.8 min | 769 µL/min/mg |  | > 10000 nM | > 10000 nM | 26.6 nM | 450 nM | 512 nM | 7.2 min | 193 µL/min/mg |  |  |  |  |  |  |  | 
5 | C[C@H]1C[C@H](C)N1C(=O)[C@@H]1C=C2c3cccc4[nH]cc(c34)C[C@H]2N(C)C1 [Int11, ((2S,4S)-2,4-dimethylazetidin-1-yl)((6aR, 9R)-7-methyl-4,6,6a,7,8,9-hexahydroindolo[4,3-fg]quinolin-9-yl)methanone] | 54.9 min | 25.3 µL/min/mg | 13.9 min | 100 µL/min/mg |  | 96.6 nM |  | 2.22 nM |  | 37 nM | 25.7 min | 53.9 µL/min/mg |  | 8.88 nM | 0.0154 mg/kg | 0.1 mg/kg | 10.93 (9.181-12.76) | 1.57 nM | < 60% | partial agonists
